Data published in article PMC3299850 (2012).

What was measured:
[1] = system: HP1 (TAMRA at T37) (DNA, hairpin, T37 replaced by 2'-deoxyuridine bearing TAMRA at C5) CCTGGAGAGGAAGCCAAGTGTTTTCACTTGGCTTCCTCTCCAGG; test: fluorescence titration; settings: 50 mM NaCl; 10 mM HEPES, 1 mM EDTA, pH 7.4, 25 °C
[2] = system: HP1 (TAMRA at T34) (DNA, hairpin, T34 replaced by 2'-deoxyuridine bearing TAMRA at C5) CCTGGAGAGGAAGCCAAGTGTTTTCACTTGGCTTCCTCTCCAGG; test: fluorescence titration; settings: 50 mM NaCl; 10 mM HEPES, 1 mM EDTA, pH 7.4, 25 °C
[3] = system: HP2 unlabeled (DNA, hairpin) GCTAGATATATAGCTTTTTAGCTATATATCTAGC; test: competition fluorescence titration; settings: 50 mM NaCl; 10 mM HEPES, 1 mM EDTA, pH 7.4, 25 °C; TAMRA-HP2 complex displaced

Row | SMILES | Kd [1] | also measured
1 | CN(C)CCCNC(=O)CCNC(=O)c1cc(NC(=O)CCNC(=O)c2cc(NC(=O)c3cc(NC(=O)CCCNC(=O)c4nc(NC(=O)c5cc(NC(=O)c6nc(NC(=O)c7nccn7C)cn6C)cn5C)cn4C)cn3C)cn2C)cn1C | 50 ± 15 nM | –
2 | CN(C)CCCNC(=O)CCNC(=O)c1cc(NC(=O)c2cc(NC(=O)c3cc(NC(=O)c4cc(NC(=O)CCCNC(=O)c5nc(NC(=O)CCNC(=O)c6nc(NC(=O)c7nccn7C)cn6C)cn5C)cn4C)cn3C)cn2C)cn1C | 140 ± 30 nM | –
3 | CN(C)CCCNC(=O)CCNC(=O)c1cc(NC(=O)c2cc(NC(=O)c3nc(NC(=O)CCCNC(=O)c4cc(NC(=O)c5nc(NC(=O)c6nccn6C)cn5C)cn4C)cn3C)cn2C)cn1C | 7.8 ± 1.6 nM | –
4 | CN(C)CCCNC(=O)CCNC(=O)c1cc(NC(=O)c2cc(NC(=O)c3nc(NC(=O)c4cc(NC(=O)CCCNC(=O)c5cc(NC(=O)c6cc(NC(=O)c7nc(NC(=O)c8nccn8C)cn7C)cn6C)cn5C)cn4C)cn3C)cn2C)cn1C | 2.3 ± 0.3 nM | –
5 | CN(C)CCCNC(=O)CCNC(=O)c1cc(NC(=O)c2nc(NC(=O)c3nc(NC(=O)c4cc(NC(=O)CCCNC(=O)c5cc(NC(=O)c6cc(NC(=O)c7cc(NC(=O)c8nccn8C)cn7C)cn6C)cn5C)cn4C)cn3C)cn2C)cn1C | – | Kd [2]: 11.4 ± 1 nM
6 | CN(CCCN)CCCNC(=O)CCNC(=O)c1cc(NC(=O)c2cc(NC(=O)c3cc(NC(=O)c4cc(NC(=O)CCNC(=O)c5cc(NC(=O)c6cc(NC(=O)CCCNC(=O)c7cc(NC(=O)c8cc(NC(=O)c9cc(NC(=O)CCNC(=O)c%10cc(NC(=O)c%11cc(NC(=O)c%12nccn%12C)cn%11C)cn%10C)cn9C)cn8C)cn7C)cn6C)cn5C)cn4C)cn3C)cn2C)cn1C | – | Kd [3]: 1.8 nM
